The experiment concerns A549 injected xenograft mouse model. Nature of the experiment: Tumorigenicity assay, xenograft mouse model. The experiment is classed as in vivo, BALB/c nude mice. As to the method:
Tumorigenicity assays were performed using BALB/c nude mice, adapted from previously described protocols with slight modifications. To establish the xenograft cancer model, cancer cells (1 × 10^6) were subcutaneously injected into the right dorsal side of 6-week-old male BALB/c nude mice to induce tumor formation. The mice were randomly divided into 2 groups (n = 15). One group served as the control, and the other groups were treated with JH62 at doses of 10 mg/kg, via intraperitoneal injection twice a week. The mice in the control group were administered an equal volume of DMSO as the solvent control. The tumor sizes were measured weekly for three weeks. After that, the mice were sacrificed, and the tumors were isolated and weighed. All animal studies were approved by the Ethics Committee of South China Agricultural University.
To evaluate the efficacy of JH62 in inhibiting tumorigenesis in vivo, a cancer xenograft model was established by transplanting cancer cells into the right flank of nude mice. The mice were treated with JH62 (10 mg/kg body weight) twice weekly for three weeks, and tumor volume changes were regularly monitored during this period. […] After 20 days of treatment, the average weight of solid tumors in the JH62-treated group was 186.3 mg, compared to 693.4 mg in the control group. The average tumor size in the control group was approximately 900 mm^3, while in the JH62-treated group, it was only about 190 mm^3 (Figure 2H,I).

For the compound `CCCCCCCC/C=C/CCCc1cc(=O)c2ccccc2[nH]1` [JH62, E-2-(tridec-4-en-1-yl)-quinolin-4(1H)-one], the “average weight of solid tumors” value (10 mg/kg intraperitoneal twice weekly, after 20 days of treatment, control 693.4 mg) stood at 186.3 mg. Further, the average tumor size entry (10 mg/kg intraperitoneal twice weekly, three weeks, control approximately 900 mm^3) is given as “about 190 mm^3”. Where the note is “xenograft mice, 10 mg/kg”, the reduced tumor volume is given as 79% and the reduced tumor weight was 73%.

The values are drawn from article PMC12844237, “A Novel Quinolone JH62 (E-2-(Tridec-4-en-1-yl)-quinolin-4(1H)-one) from Pseudomonas aeruginosa Exhibits Potent Anticancer Activity” (Microorganisms, 2025).
